Values after ≈ are worked out from the molar mass of the structure shown.
Columns and labels:
[1] = system: vancomycin-sensitive Staphylococcus aureus (VSSA strain ATCC 25923); experiment: Antimicrobial assay, MIC, vancomycin-sensitive S. aureus; assay type: cell-based; conditions: Staphylococcus aureus, ATCC25923; ATCC 25923; read-out: MIC, sensitive S. aureus
Protocol: (§1) Assays were carried out following the methods of Clinical and Laboratory Standards Institute; Methods for Dilution Antimicrobial Susceptibility Tests for Bacteria That Grow Aerobically; Approved Standard, […].; CLSI document M07-A8; Clinical and Laboratory Standards Institute: Wayne, Pa., 2009.
(§2) This diluted bacterial stock solution was then inoculated into a well of a V-shaped 96-well glass coated microtiter plate, supplemented with serial diluted aliquots of the antibiotic solution DMSO (4 μL), to achieve a total assay volume of 0.1 mL. The plate was then incubated at 37° C. for 18 hours, after which minimal inhibitory concentrations (MICs) were determined by monitoring the cell growth (observed as a pellet) in the wells. The lowest concentration of antibiotic (in μg/mL) capable of eliminating the cell growth in the wells is reported as the MIC.

[2] = system: vancomycin-resistant Enterococcus faecalis (VanA VRE, BM4166); experiment: microbe, parasite or virus in culture; assay type: cell-based; conditions: for MIC: Enterococcus faecalis, VRE, read-out: MIC, VanA E. faecalis
Protocol: as §1, §2

[3] = system: vancomycin-resistant Enterococcus faecalis (VanB VRE, strain ATCC 51299); experiment: microbe, parasite or virus in culture; assay type: cell-based; conditions: for MIC: Enterococcus faecalis, read-out: MIC, VanB E. faecalis
Protocol: as §1, §2

[4] = system: Enterococcus faecium (VanA VRE, ATCC BAA-2317); experiment: Antimicrobial assay, MIC, VanA E. faecium; assay type: cell-based; conditions: for MIC: Enterococcus faecium, read-out: MIC, VanA E. faecium
Protocol: as §1, §2

[5] = system: methicillin and oxacillin-resistant Staphylococcus aureus subsp. aureus (MRSA strain ATCC 43300); experiment: Antimicrobial assay, MIC, MRSA; assay type: cell-based; conditions: for MIC: Staphylococcus aureus, read-out: MIC, MRSA S. aureus
Protocol: as §1, §2

VanA VRE = experiment: Antimicrobial assay, MIC for VanA VRE; assay type: cell-based, E. faecalis and E. faecium
Protocol: as §1, §2

Molecule | MIC [1] [µg/mL] | MIC [2] [µg/mL] | MIC [3] [µg/mL] | MIC [4] [µg/mL] | MIC [5] [µg/mL] | also measured
CN[C@H](CC(C)C)C(=O)N[C@H]1C(=O)N[C@@H](CC(N)=O)C(=O)N[C@H]2C(=S)NC3C(=O)N[C@H](C(=O)N[C@H](CO)c4cc(O)cc(O)c4-c4cc3ccc4O)[C@H](O)c3ccc(c(Cl)c3)Oc3cc2cc(c3OC2OC(CO)C(O)[C@H](O)[C@@H]2O[C@H]2CC(C)(N)[C@H](O)[C@H](C)O2)Oc2ccc(cc2Cl)[C@H]1O (stereo partly shown) [Compound 24] | > 32 | > 32 | > 32 | > 32 | > 32 | 
CN[C@H](CC(C)C)C(=O)N[C@H]1C(=O)N[C@@H](CC(N)=O)C(=O)N[C@H]2C(=N)NC3C(=O)N[C@H](C(=O)N[C@H](CO)c4cc(O)cc(O)c4-c4cc3ccc4O)[C@H](O)c3ccc(c(Cl)c3)Oc3cc2cc(c3OC2OC(CO)C(O)[C@H](O)[C@@H]2O[C@H]2CC(C)(N)[C@H](O)[C@H](C)O2)Oc2ccc(cc2Cl)[C@H]1O (stereo partly shown) [Compound 25] |  | 2 (≈ 1.39 µM) |  | 2 (≈ 1.39 µM) |  | 
CN[C@H](CC(C)C)C(=O)N[C@H]1C(=O)N[C@@H](CC(N)=O)C(=O)N[C@H]2C(=O)NC3C(=O)N[C@H](C(=O)N[C@H](CO)c4cc(O)cc(O)c4-c4cc3ccc4O)[C@H](O)c3ccc(c(Cl)c3)Oc3cc2cc(c3OC2OC(CO)C(O)[C@H](O)[C@@H]2O[C@H]2CC(C)(NCc3ccc(-c4ccc(Cl)cc4)cc3)[C@H](O)[C@H](C)O2)Oc2ccc(cc2Cl)[C@H]1O (stereo partly shown) [Compound 26] | 0.03 (≈ 0.0183 µM) | 2 (≈ 1.22 µM) | 0.13 (≈ 0.0795 µM) | 4 (≈ 2.45 µM) | 0.03 (≈ 0.0183 µM) | 
CN[C@H](CC(C)C)C(=O)N[C@H]1C(=O)N[C@@H](CC(N)=O)C(=O)N[C@H]2C(=S)NC3C(=O)N[C@H](C(=O)N[C@H](CO)c4cc(O)cc(O)c4-c4cc3ccc4O)[C@H](O)c3ccc(c(Cl)c3)Oc3cc2cc(c3OC2OC(CO)C(O)[C@H](O)[C@@H]2O[C@H]2CC(C)(NCc3ccc(-c4ccc(Cl)cc4)cc3)[C@H](O)[C@H](C)O2)Oc2ccc(cc2Cl)[C@H]1O (stereo partly shown) [Compound 27] | 4 (≈ 2.42 µM) | 8 (≈ 4.84 µM) | 4 (≈ 2.42 µM) | 4 (≈ 2.42 µM) | 8 (≈ 4.84 µM) | 
CN[C@H](CC(C)C)C(=O)N[C@H]1C(=O)N[C@@H](CC(N)=O)C(=O)N[C@H]2C(=N)NC3C(=O)N[C@H](C(=O)N[C@H](CO)c4cc(O)cc(O)c4-c4cc3ccc4O)[C@H](O)c3ccc(c(Cl)c3)Oc3cc2cc(c3OC2OC(CO)C(O)[C@H](O)[C@@H]2O[C@H]2CC(C)(NCc3ccc(-c4ccc(Cl)cc4)cc3)[C@H](O)[C@H](C)O2)Oc2ccc(cc2Cl)[C@H]1O (stereo partly shown) [Compound 28] | 0.13 (≈ 0.0795 µM) | 0.02 (≈ 0.0122 µM) | 0.06 (≈ 0.0367 µM) | 0.02 (≈ 0.0122 µM) | 0.13 (≈ 0.0795 µM) | 
CBP-[Ψ[CH2NH]Tpg^4]vancomycin [Compound 17] |  |  |  |  |  | improvement in activity against VanA VRE on introduction of the (4-chlorobiphenyl)methyl group (VanA VRE; relative to the analogue without CBP group): 100 fold; MIC against VanA VRE (VanA VRE; stated for VanA VRE): 0.06 to 0.13 µg/mL; MIC, VanA E. faecalis ([2]; BM 4166): 0.13 µg/mL; MIC, Van A E. faecalis, serum concentration 10% ([2]; BM 4166, 10%): 0.13 µg/mL; MIC, Van A E. faecalis, serum concentration 25% ([2]; BM 4166, 25%): 0.26 µg/mL; MIC, Van A E. faecalis, serum concentration 100% ([2]; BM 4166, 100%): 0.5 µg/mL; MIC, VanB E. faecalis ([3]; ATCC 51299): 0.5 µg/mL; MIC, Van B E. faecalis, serum concentration 10% ([3]; ATCC 51299, 10%): 0.5 µg/mL; MIC, Van B E. faecalis, serum concentration 25% ([3]; ATCC 51299, 25%): 1 µg/mL; MIC, Van B E. faecalis, serum concentration 100% ([3]; ATCC 51299, 100%): 2 µg/mL; MIC, VanA E. faecium ([4]; ATCC BAA-2317): 0.06 µg/mL; MIC, Van A E. faecium, serum concentration 10% ([4]; ATCC BAA-2317, 10%): 0.06 µg/mL; MIC, Van A E. faecium, serum concentration 25% ([4]; ATCC BAA-2317, 25%): 0.13 µg/mL; MIC, Van A E. faecium, serum concentration 100% ([4]; ATCC BAA-2317, 100%): 0.5 µg/mL; MIC, MRSA S. aureus ([5]; ATCC 43300): 0.25 µg/mL; MIC, MRSA S. aureus, serum concentration 10% ([5]; ATCC 43300, 10%): 0.25 µg/mL; MIC, MRSA S. aureus, serum concentration 25% ([5]; ATCC 43300, 25%): 0.5 µg/mL; MIC, MRSA S. aureus, serum concentration 100% ([5]; ATCC 43300, 100%): 1 µg/mL
